From ChEMBL document CHEMBL4392832, “Surveying heterocycles as amide bioisosteres within a series of mGlu7 NAMs: Discovery of VU6019278” (Bioorg Med Chem Lett, 2019)

Key:
[1] = target: Metabotropic glutamate receptor 7 (Rattus norvegicus, UniProt P35400); experiment: (§1) Negative allosteric modulation of rat mGlu7 receptor expressed in HEK cells co-expressing Galpha15 assessed as reduction in calcium mobilization incubated for 142 secs prior to glutamate addition for 120 secs followed by L-AP4 addition and measured after 40 secs by Fluo-4 AM dye based fluorescence assay; format: functional, cell-based
[2] = target: Metabotropic glutamate receptor 7 (Rattus norvegicus) (UniProt P35400); experiment: as §1, with “assessed as minimum L-AP4 response by measuring reduction in” for “assessed as reduction in”, “fluorescence assay relative to L-AP4 alone” for “fluorescence assay”; format: functional, cell-based; set-up: scale not given: the % may be the effect or the level left
[3] = Unbound brain to plasma concentration ratio in rat; format: ADME, cell-free; conditions: read-out: K(p,uu,brain)
[4] = Brain to plasma permeability coefficient, Kp of compound in rat; format: ADME, cell-free
[5] = Protein binding in rat plasma assessed as unbound fraction at 5 uM measured after 4 hrs by LC-MS/MS analysis; format: ADME, cell-free
[6] = Free drug level in Sprague-Dawley rat brain at 0.2 mg/kg, iv via cassette dosing measured after 0.25 hrs by LC-MS/MS analysis; format: ADME, organism-based; conditions: in vivo
[7] = target: Metabotropic glutamate receptor 4 (Homo sapiens, UniProt Q14833); experiment: Negative allosteric modulation of mGlu4 receptor (unknown origin)
[8] = Total drug level in Sprague-Dawley rat brain at 0.2 mg/kg, iv via cassette dosing measured after 0.25 hrs by LC-MS/MS analysis; format: ADME, organism-based; conditions: read-out: Drug uptake
[9] = target: Metabotropic glutamate receptor 5 (Homo sapiens, UniProt P41594); experiment: Negative allosteric modulation of mGlu5 receptor (unknown origin)
[10] = target: Metabotropic glutamate receptor 2 (Homo sapiens, UniProt Q14416); experiment: Negative allosteric modulation of mGlu2 receptor (unknown origin)
[11] = target: Metabotropic glutamate receptor 6 (Homo sapiens, UniProt O15303); experiment: Negative allosteric modulation of mGlu6 receptor (unknown origin)
[12] = target: Metabotropic glutamate receptor 3 (Homo sapiens, UniProt Q14832); experiment: Negative allosteric modulation of mGlu3 receptor (unknown origin)
[13] = Protein binding in rat brain assessed as unbound fraction at 5 uM measured after 6 hrs by LC-MS/MS analysis; format: ADME, tissue-based
[14] = target: Metabotropic glutamate receptor 1 (Homo sapiens, UniProt Q13255); experiment: Negative allosteric modulation of mGlu1 receptor (unknown origin)
[15] = target: Metabotropic glutamate receptor 8 (Homo sapiens, UniProt O00222); experiment: Negative allosteric modulation of mGlu8 receptor (unknown origin)
Sequence of Metabotropic glutamate receptor 8 (O00222 whole entry): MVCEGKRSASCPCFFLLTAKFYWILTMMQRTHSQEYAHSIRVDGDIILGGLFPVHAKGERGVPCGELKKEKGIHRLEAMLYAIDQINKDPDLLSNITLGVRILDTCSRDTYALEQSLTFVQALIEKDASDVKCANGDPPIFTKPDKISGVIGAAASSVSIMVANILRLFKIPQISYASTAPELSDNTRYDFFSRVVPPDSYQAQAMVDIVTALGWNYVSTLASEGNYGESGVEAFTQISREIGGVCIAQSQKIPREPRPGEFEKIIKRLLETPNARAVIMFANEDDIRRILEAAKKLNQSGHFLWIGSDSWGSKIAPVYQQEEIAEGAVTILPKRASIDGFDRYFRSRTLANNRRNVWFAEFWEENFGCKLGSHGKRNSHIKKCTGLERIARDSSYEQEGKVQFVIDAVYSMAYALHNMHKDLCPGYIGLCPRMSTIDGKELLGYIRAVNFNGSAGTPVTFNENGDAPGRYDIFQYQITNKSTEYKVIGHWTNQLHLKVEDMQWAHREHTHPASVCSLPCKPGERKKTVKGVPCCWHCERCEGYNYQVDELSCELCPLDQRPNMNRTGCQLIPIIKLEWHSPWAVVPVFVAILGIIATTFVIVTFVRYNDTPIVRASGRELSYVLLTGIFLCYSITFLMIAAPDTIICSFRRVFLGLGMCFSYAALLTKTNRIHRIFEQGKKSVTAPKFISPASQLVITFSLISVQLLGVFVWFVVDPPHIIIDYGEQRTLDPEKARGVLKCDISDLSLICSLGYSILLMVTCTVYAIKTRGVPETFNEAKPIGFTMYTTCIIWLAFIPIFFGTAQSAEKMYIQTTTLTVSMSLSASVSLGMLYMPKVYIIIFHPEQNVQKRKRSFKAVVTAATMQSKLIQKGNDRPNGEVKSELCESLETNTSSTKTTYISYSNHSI

Sequence of Metabotropic glutamate receptor 7 (Rattus norvegicus) (P35400 whole entry): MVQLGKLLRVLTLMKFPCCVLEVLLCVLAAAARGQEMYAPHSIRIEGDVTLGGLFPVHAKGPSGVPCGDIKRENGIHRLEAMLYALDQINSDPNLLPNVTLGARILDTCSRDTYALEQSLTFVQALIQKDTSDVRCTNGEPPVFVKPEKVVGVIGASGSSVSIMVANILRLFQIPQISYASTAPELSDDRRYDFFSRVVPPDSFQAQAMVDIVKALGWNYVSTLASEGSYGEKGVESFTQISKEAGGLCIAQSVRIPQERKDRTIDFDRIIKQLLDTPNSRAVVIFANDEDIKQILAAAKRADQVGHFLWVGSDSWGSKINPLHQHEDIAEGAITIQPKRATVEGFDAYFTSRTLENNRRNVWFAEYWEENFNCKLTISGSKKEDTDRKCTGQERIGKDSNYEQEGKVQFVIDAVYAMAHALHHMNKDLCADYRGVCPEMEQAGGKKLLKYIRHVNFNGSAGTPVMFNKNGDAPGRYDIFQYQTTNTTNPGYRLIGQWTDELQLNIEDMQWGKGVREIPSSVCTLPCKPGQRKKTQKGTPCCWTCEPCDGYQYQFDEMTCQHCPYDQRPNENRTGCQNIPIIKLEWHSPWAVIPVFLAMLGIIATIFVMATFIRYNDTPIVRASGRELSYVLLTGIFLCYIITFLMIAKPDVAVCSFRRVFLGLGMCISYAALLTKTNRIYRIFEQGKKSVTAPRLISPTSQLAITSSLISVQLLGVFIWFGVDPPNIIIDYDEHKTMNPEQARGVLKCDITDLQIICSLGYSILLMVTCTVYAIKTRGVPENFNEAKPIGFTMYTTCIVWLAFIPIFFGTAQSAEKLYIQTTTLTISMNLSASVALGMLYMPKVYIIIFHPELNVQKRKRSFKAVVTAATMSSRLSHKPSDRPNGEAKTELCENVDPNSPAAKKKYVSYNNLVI
Sequence of Metabotropic glutamate receptor 7 (P35400 whole entry): as above
Sequence of Metabotropic glutamate receptor 5 (P41594 whole entry): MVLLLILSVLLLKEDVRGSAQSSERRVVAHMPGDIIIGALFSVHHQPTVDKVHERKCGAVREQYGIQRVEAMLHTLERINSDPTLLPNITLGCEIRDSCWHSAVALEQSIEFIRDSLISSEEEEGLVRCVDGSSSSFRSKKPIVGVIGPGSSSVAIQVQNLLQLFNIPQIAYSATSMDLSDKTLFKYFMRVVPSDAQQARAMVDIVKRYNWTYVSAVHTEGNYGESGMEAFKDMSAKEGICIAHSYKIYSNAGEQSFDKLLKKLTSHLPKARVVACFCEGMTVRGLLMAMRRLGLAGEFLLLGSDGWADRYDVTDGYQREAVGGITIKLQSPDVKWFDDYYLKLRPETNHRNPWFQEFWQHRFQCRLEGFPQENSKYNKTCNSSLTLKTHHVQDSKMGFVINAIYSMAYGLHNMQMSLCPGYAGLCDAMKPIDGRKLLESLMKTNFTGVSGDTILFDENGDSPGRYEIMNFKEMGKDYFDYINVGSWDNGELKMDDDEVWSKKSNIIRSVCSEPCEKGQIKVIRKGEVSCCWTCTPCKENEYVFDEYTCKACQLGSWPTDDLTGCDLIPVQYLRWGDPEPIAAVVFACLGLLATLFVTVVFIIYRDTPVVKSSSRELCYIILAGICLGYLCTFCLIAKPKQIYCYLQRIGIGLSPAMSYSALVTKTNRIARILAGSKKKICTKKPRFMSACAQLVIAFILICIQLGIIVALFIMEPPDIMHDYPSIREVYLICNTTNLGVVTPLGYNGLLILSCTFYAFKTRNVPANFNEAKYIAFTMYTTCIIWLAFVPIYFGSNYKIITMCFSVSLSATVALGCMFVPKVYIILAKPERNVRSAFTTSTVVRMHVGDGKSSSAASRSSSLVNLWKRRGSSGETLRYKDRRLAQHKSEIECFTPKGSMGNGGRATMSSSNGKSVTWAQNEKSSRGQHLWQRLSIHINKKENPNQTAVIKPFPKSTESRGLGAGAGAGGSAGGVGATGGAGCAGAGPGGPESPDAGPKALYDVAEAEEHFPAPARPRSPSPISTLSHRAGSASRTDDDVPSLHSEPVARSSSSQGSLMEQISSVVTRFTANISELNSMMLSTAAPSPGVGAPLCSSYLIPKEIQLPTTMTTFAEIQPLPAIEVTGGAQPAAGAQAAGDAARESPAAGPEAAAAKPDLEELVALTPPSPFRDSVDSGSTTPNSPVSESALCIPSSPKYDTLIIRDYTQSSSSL
Sequence of Metabotropic glutamate receptor 2 (Q14416 whole entry): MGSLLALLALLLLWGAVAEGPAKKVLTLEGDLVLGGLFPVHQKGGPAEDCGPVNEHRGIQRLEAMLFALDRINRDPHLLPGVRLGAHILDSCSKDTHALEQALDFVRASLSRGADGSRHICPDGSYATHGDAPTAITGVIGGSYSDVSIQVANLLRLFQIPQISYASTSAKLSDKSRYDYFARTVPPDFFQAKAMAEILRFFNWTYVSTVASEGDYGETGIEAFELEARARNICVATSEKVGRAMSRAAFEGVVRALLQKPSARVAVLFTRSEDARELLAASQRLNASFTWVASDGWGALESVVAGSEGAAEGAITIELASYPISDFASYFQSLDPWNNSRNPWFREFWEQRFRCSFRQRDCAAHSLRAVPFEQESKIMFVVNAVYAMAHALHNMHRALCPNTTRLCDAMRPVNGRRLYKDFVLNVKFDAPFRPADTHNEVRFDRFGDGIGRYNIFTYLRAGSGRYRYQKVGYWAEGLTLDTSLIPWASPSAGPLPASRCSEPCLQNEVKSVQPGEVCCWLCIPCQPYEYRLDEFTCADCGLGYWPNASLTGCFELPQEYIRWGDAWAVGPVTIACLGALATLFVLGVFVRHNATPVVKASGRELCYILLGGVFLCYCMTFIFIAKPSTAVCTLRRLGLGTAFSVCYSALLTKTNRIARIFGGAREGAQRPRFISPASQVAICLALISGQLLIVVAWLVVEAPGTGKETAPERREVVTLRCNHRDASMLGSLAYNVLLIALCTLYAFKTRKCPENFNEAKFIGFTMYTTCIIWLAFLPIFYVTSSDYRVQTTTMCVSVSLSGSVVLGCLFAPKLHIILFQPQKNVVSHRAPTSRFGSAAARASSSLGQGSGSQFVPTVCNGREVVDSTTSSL
Sequence of Metabotropic glutamate receptor 4 (Q14833 whole entry): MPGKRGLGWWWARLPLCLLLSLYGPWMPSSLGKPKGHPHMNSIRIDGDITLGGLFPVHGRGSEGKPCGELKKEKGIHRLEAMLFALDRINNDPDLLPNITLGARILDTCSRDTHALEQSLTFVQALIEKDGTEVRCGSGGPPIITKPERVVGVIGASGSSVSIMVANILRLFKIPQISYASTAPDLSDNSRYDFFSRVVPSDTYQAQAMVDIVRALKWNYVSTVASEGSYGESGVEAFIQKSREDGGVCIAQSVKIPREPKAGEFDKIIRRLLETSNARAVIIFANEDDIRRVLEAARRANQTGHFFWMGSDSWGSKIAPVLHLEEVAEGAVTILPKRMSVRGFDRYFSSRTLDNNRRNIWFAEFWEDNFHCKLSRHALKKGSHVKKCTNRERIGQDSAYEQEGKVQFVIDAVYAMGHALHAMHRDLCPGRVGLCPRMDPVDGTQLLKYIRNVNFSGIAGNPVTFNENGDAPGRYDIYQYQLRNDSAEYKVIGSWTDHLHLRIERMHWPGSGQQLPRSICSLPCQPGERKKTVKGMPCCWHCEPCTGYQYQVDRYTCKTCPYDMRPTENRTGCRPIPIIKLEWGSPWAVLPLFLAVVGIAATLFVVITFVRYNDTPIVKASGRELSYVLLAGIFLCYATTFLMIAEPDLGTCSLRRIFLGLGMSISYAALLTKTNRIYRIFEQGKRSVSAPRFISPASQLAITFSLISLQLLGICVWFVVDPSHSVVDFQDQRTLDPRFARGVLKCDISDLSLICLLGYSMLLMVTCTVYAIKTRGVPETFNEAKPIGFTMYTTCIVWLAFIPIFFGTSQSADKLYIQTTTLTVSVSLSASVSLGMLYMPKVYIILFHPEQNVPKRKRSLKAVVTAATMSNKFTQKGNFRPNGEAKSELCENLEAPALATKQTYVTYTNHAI

| IC50 ([1]; read-out: IC50) [µM] | Activity [2] [%] | SMILES | other results |
| --- | --- | --- | --- |
| ≥ 10 | 72.8 | COc1cc(F)c(-c2nnc(-c3cc(OC(F)(F)F)ccc3-n3cncn3)o2)cc1OC | – |
| > 30 | – | COc1ccc(-c2nnc(-c3cc(OC(F)(F)F)ccc3-n3cncn3)o2)cc1F | – |
| 1.18 | 23.1 | COc1ccc(-c2nnc(-c3cc(OC(F)(F)F)ccc3N3CCOCC3)o2)cc1OC | – |
| > 30 | – | COc1ccc(-c2nnc(-c3cc(OC(F)(F)F)ccc3-c3cccnc3)o2)cc1OC | – |
| – | 20.6 | COc1ccc(-c2nnc(-c3cc(OC(F)(F)F)ccc3-c3ccnn3C)o2)cc1OC | – |
| 3.53 | 49.2 | COc1ccc(-c2nnc(-c3cc(OC(F)(F)F)ccc3-c3cscn3)o2)cc1OC | – |
| ≥ 10 | 27.6 | COc1ccc(-c2nnc(-c3cc(OC(F)(F)F)ccc3-c3ccnnc3)o2)cc1OC | – |
| > 30 | – | COc1ccc(-c2nnc(-c3cc(OC(F)(F)F)ccc3N3CCN(C)CC3)o2)cc1OC | – |
| 2.08 | 36.5 | COc1ccc(-c2cnc(-c3cc(OC(F)(F)F)ccc3-n3cncn3)o2)cc1OC | – |
| > 30 | – | COc1ccc(-c2nnc(-c3cc(OC(F)(F)F)ccc3N3CCCC3)o2)cc1OC | – |
| 1.58 | 7.1 | COc1ccc(-c2nnc(-c3cc(OC(F)(F)F)ccc3-n3cncn3)o2)cc1OC | – |
| > 30 | – | COc1cc(-c2nnc(-c3cc(OC(F)(F)F)ccc3-n3cncn3)o2)ccc1F | – |
| > 30 | – | COc1ccc(-c2nnc(-c3cc(OC(F)(F)F)ccc3-c3cnn(C)c3)o2)cc1OC | – |
| ≥ 10 | 27.9 | COc1ccc(-c2nnc(-c3cc(OC(F)(F)F)ccc3-c3ccncc3)o2)cc1OC | – |
| 4.38 | 13.5 | COc1cc(-c2nnc(-c3cc(OC(F)(F)F)ccc3-n3cncn3)o2)cnc1OC | – |
| 1.55 | 10.4 | COc1cc(-c2nnc(-c3cc(OC(F)(F)F)ccc3-n3cncn3)o2)ccc1OC1CCC1 | – |
| 5.86 | 65.4 | COc1ccc(-c2nnc(-c3cc(OC(F)(F)F)ccc3N3CCCCC3)o2)cc1OC | – |
| 2.24 | 10.3 | COc1ccc(-c2nnc(-c3cc(OC(F)(F)F)ccc3-c3cn[nH]c3)o2)cc1OC | – |
| 1.31 | 13.2 | COc1cc(-c2nnc(-c3cc(OC(F)(F)F)ccc3-n3cncn3)o2)ccc1OCC1CC1 | Kp uu [3]: 0.43; Kp [4]: 2; fraction unbound at 4 h, 5 µM [5]: 0.038 |
| 0.57 | 6.3 | COc1ccc(-c2nnc(-c3cc(OC(F)(F)F)ccc3-n3ccnc3)o2)cc1OC | Drug uptake(free) [6]: 6 nM; IC50 [7]: > 10 µM; Kp uu [3]: 0.65; concentration at 0.25 h [8]: 456 nM; IC50 [9]: > 10 µM; IC50 [10]: > 10 µM; IC50 [11]: > 10 µM; IC50 [12]: > 10 µM; Kp [4]: 4.9; fraction unbound at 6 h, 5 µM [13]: 0.013; IC50 [14]: > 10 µM; Fu ([5]; 4 h, 5 µM): 0.1; IC50 [15]: > 10 µM |

Second part, the compound before the results:

| SMILES | IC50 ([1]; read-out: IC50) [µM] | Activity [2] [%] | other results |
| --- | --- | --- | --- |
| COc1ccc(-c2nnc(-c3cc(OC(F)(F)F)ccc3-n3cncn3)o2)cn1 | > 30 | – | – |
| COc1ccc(-c2c[nH]c(-c3cc(OC(F)(F)F)ccc3-n3cncn3)n2)cc1OC | ≥ 10 | 34.2 | – |
| COc1ccc(-c2nn3cc(-c4cc(OC(F)(F)F)ccc4-n4cncn4)nc3s2)cc1OC | – | – | IC50 [1]: Not Active |
| COc1cc(-c2nnc(-c3cc(OC(F)(F)F)ccc3-n3cncn3)o2)ccn1 | ≥ 10 | 68.9 | – |
| FC(F)(F)Oc1ccc(-n2cncn2)c(-c2nnc(-c3ccc4c(c3)OCCO4)o2)c1 | > 30 | – | – |
| FC(F)(F)Oc1ccc(-n2cncn2)c(-c2nnc(-c3ccc4c(c3)OC(F)(F)O4)o2)c1 | > 30 | – | – |
| COc1ccc(-c2nnc(-c3cc(OC(F)(F)F)ccc3-n3cncn3)o2)c(F)c1F | > 30 | – | – |
| COc1ccc(-c2noc(-c3cc(OC(F)(F)F)ccc3-n3cncn3)n2)cc1OC | 1.32 | 14.5 | – |
| COc1ccc(-c2cn(-c3cc(OC(F)(F)F)ccc3-n3cncn3)nn2)cc1OC | ≥ 10 | 32.4 | – |
| COc1ccc(-c2ccc3nnc(-c4cc(OC(F)(F)F)ccc4-n4cncn4)n3n2)cc1OC | – | – | IC50 [1]: Not Active |
| COc1ccc(-c2nnc3sc(-c4cc(OC(F)(F)F)ccc4-n4cncn4)nn23)cc1OC | – | – | IC50 [1]: Not Active |
| COc1ccc(-c2nnnn2-c2cc(OC(F)(F)F)ccc2-n2cncn2)cc1OC | – | – | IC50 [1]: Not Active |
| COc1ccc(-c2ccn3c(-c4cc(OC(F)(F)F)ccc4-n4cncn4)nnc3c2)cc1OC | – | – | IC50 [1]: Not Active |
| COc1ccc(-c2nc(-c3cc(OC(F)(F)F)ccc3-n3cncn3)no2)cc1OC | 2.39 | 8.4 | – |
| FC(F)(F)Oc1ccc(-n2cncn2)c(-c2nnc(-c3ccc4c(c3)OCO4)o2)c1 | > 30 | – | – |
| COc1ccc(-c2nsc(-c3cc(OC(F)(F)F)ccc3-n3cncn3)n2)cc1OC | ≥ 10 | 41.5 | – |
| COc1cc(-c2nnc(-c3cc(OC(F)(F)F)ccc3-n3cncn3)o2)cc(F)c1OC | > 30 | – | – |
| COc1ccc(-c2coc(-c3cc(OC(F)(F)F)ccc3-n3cncn3)n2)cc1OC | 7.63 | 21.1 | – |
